Values of other authors, collected in paper PMC5344293, “A phase 1 dose-escalation and expansion study of binimetinib (MEK162), a potent and selective oral MEK1/2 inhibitor” (British Journal of Cancer, 2017).
Where two headings read alike, the source gives them in different places.

How the values were obtained:
[1] = system: advanced solid tumours; parameters: method as in Infante et al, 2012; details: ref Infante et al, 2012, cited from earlier work
[2] = system: non-melanoma tumours; parameters: method as in Rosen et al, 2011; details: ref Rosen et al, 2011; cited from earlier work
[3] = system: non-melanoma tumours; parameters: method as in Delord et al, 2010; details: ref Delord et al, 2010; cited from earlier work
[4] = system: metastatic biliary cancer; parameters: method as in Bekaii-Saab et al, 2011; details: ref Bekaii-Saab et al, 2011; cited from earlier work
[5] = system: non-melanoma tumours; parameters: method as in Adjei et al, 2008; details: ref Adjei et al, 2008; cited from earlier work

SMILES: CC(=O)Nc1cccc(-n2c(=O)n(C3CC3)c(=O)c3c(Nc4ccc(I)cc4F)n(C)c(=O)c(C)c32)c1 [trametinib]
- Non-melanoma patients with objective responses ([1]; NSCLC and pancreas cancer (2 patients each)): 4 patients
- Patients with objective responses ([1]; all tumour types): 21 patients

SMILES: O=C(c1ccc(F)c(F)c1Nc1ccc(I)cc1F)N1CC(O)([C@@H]2CCCCN2)C1 [cobimetinib]
- Objective responses to single-agent treatment in non-melanoma patients [2]: no objective responses

SMILES: O=C(NC[C@H](O)CO)c1ccncc1Nc1ccc(I)cc1F [pimasertib]
- Objective responses to single-agent treatment in non-melanoma patients [3]: no objective responses

SMILES: Cn1cnc2c(F)c(Nc3ccc(Br)cc3Cl)c(C(=O)NOCCO)cc21 [selumetinib]
- Objective response, patients [4]: 12%
- Objective responses to single-agent treatment in non-melanoma patients [5]: no objective responses
